Tests used:
Test in all cases: Kinase profiling screen (radioactive filter-binding assay)
Assay type in all cases: biochemical
[1] = target: HIPK3 (Homo sapiens, UniProt Q9H422); conditions: 100 μM compound, 20 μM ATP; read-out: Kinase activity, % of activity in the absence of inhibitor
Method in brief: (§1)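 CoA, dpCoA and ADP were each tested in vitro, in duplicate, at 100 μM final concentration as part of a 117-kinase panel. Recombinant kinases were used with model substrates and optimal ATP concentrations.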

[2] = target: MARK2 (Homo sapiens, UniProt Q7KZI7); conditions: 100 μM compound, 20 μM ATP; read-out: Kinase activity, % of activity in the absence of inhibitor
MARK2, sequence (Q7KZI7 whole entry): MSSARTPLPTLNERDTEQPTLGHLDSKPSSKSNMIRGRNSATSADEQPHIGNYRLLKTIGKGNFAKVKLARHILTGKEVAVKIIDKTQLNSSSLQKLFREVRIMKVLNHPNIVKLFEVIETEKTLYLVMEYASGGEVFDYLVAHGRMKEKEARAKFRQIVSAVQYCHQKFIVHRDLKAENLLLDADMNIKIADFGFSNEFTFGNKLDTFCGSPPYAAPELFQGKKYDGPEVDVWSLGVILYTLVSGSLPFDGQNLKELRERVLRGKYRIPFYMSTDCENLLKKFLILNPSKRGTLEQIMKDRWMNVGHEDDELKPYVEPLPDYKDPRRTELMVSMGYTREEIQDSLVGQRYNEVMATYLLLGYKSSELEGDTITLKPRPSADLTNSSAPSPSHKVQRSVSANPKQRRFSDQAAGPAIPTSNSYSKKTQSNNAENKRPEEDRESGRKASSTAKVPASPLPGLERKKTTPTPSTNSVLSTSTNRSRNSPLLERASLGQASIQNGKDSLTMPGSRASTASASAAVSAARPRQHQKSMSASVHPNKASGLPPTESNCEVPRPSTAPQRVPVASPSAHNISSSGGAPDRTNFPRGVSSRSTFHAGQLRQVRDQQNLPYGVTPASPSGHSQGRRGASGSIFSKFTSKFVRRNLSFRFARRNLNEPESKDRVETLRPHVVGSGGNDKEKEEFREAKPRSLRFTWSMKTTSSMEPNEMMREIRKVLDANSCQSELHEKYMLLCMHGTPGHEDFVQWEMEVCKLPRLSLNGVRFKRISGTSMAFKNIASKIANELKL
Method in brief: as §1

[3] = target: p38α MAPK (Homo sapiens, UniProt Q16539); conditions: 100 μM compound, 50 μM ATP; read-out: Kinase activity, % of activity in the absence of inhibitor
p38α MAPK, sequence (Q16539 whole entry): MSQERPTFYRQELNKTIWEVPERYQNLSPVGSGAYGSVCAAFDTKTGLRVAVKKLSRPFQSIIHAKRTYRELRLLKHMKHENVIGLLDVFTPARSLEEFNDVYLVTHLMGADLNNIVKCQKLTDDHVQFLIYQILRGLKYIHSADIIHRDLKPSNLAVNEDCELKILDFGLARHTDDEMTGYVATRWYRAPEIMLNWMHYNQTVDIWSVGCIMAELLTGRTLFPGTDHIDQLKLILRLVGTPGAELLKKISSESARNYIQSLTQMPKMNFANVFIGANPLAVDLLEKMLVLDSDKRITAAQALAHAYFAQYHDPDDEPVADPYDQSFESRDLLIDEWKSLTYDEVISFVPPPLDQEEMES
Method in brief: as §1

[4] = target: T1, EPH-B3 (Homo sapiens, UniProt P54753); conditions: 100 μM compound, 20 μM ATP; read-out: Kinase activity, % of activity in the absence of inhibitor
T1 sequence (P54753 34-998): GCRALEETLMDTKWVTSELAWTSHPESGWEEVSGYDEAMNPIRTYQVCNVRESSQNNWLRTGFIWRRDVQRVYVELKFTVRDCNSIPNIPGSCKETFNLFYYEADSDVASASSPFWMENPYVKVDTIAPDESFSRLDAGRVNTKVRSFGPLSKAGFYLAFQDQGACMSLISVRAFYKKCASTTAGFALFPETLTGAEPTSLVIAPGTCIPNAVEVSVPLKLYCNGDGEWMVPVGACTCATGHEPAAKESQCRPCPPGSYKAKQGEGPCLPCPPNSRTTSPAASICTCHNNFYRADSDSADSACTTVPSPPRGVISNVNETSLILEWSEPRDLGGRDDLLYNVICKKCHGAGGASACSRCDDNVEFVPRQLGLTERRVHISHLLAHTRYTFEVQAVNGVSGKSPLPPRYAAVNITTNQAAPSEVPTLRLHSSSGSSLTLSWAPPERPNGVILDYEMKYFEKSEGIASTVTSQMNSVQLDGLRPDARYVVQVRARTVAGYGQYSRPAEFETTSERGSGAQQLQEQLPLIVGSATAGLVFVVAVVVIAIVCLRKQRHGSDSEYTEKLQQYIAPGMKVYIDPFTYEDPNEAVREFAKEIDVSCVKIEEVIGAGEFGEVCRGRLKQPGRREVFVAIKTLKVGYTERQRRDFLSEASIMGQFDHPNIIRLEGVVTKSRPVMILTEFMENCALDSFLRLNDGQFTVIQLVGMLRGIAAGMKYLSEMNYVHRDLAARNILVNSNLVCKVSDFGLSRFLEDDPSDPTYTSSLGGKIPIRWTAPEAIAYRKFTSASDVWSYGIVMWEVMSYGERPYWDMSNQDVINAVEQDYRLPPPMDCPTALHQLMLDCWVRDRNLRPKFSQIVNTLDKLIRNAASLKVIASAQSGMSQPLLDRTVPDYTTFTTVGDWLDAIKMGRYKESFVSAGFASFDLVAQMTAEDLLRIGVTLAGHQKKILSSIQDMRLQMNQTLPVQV
Method in brief: as §1

[5] = target: T2, TAO1 (Homo sapiens, UniProt Q7L7X3); conditions: 100 μM compound, 20 μM ATP; read-out: Kinase activity, % of activity in the absence of inhibitor
T2 sequence (Q7L7X3 1-1001): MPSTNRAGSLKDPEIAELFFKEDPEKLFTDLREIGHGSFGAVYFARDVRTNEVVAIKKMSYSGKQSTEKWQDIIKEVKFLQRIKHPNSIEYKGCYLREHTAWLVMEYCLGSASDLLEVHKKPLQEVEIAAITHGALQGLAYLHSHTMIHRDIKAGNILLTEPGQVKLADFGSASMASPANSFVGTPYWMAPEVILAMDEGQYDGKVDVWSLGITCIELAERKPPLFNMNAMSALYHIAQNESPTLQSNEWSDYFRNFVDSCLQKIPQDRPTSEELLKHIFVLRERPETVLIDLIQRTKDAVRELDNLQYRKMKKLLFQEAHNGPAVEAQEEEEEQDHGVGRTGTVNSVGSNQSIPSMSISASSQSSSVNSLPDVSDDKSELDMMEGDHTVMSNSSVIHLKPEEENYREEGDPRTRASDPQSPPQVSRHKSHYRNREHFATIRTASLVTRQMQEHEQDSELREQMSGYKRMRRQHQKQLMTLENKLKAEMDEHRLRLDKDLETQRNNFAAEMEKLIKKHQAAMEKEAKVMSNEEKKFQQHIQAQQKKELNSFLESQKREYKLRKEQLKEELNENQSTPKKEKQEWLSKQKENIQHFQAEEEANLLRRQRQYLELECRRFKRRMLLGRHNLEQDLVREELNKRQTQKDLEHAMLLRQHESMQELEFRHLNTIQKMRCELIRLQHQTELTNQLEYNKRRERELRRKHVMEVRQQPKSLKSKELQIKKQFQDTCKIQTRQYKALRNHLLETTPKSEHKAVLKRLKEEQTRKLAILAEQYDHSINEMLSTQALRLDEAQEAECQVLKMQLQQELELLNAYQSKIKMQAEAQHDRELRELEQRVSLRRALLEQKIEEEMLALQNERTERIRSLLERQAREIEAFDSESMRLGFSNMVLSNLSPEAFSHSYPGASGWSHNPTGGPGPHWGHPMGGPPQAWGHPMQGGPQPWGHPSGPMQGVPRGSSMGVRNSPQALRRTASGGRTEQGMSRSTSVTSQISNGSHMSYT
Method in brief: as §1

[6] = target: MLK3 (Homo sapiens, UniProt Q16584); conditions: 100 μM compound, 20 μM ATP; read-out: Kinase activity, % of activity in the absence of inhibitor
MLK3, sequence (Q16584 whole entry): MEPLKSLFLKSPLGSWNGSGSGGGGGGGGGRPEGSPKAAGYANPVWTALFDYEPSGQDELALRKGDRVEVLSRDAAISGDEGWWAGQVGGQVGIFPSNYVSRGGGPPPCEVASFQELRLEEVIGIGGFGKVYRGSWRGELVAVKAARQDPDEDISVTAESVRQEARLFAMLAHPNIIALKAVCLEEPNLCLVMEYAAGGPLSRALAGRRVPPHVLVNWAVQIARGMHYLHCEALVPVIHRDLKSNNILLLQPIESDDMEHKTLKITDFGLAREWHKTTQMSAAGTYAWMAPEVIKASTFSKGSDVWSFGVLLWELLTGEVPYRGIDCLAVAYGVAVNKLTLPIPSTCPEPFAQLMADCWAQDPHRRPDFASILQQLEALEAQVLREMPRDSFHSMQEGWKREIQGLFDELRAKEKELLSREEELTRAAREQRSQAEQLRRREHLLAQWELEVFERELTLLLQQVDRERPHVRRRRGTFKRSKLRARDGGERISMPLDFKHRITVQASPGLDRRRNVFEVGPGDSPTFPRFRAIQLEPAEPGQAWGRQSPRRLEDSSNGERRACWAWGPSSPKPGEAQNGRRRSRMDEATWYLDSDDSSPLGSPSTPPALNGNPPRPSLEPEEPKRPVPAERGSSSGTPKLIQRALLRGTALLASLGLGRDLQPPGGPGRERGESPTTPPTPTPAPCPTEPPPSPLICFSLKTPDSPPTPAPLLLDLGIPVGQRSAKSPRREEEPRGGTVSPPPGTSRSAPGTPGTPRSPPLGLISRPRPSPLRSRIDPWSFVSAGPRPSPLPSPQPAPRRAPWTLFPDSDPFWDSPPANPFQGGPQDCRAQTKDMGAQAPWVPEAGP
Method in brief: as §1

HIPK3, sequence (Q9H422 whole entry): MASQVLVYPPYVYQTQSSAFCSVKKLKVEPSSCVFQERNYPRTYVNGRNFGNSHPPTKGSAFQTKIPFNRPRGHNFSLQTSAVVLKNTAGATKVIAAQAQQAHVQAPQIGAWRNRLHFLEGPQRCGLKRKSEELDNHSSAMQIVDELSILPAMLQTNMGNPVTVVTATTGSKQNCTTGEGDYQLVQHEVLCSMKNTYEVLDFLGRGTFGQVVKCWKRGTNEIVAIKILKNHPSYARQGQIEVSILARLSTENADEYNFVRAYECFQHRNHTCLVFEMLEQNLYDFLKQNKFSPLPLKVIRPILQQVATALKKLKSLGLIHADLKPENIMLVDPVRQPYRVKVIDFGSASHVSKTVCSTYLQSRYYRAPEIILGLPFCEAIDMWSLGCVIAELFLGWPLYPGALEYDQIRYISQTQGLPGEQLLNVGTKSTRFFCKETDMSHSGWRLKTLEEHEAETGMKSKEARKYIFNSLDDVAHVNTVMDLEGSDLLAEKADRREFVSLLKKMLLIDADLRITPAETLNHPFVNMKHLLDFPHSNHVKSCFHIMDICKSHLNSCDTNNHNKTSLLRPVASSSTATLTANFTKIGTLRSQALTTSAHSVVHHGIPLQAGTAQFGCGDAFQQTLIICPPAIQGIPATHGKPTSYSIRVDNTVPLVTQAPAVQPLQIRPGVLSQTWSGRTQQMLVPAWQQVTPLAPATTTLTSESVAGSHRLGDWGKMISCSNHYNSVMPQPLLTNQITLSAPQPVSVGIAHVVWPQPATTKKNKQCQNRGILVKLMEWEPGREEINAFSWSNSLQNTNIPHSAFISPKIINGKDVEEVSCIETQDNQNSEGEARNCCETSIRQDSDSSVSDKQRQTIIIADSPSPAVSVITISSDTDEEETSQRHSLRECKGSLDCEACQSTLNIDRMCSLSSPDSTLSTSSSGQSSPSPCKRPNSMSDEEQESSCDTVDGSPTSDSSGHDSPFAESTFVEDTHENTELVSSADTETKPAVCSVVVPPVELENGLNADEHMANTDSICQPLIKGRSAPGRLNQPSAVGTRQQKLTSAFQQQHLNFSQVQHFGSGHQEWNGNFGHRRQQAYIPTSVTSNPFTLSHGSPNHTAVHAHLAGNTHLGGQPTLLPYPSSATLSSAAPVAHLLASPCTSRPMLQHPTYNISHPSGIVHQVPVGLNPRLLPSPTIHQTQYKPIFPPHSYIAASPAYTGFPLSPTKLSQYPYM

Nc1ncnc2c1ncn2C1OC(COP(=O)(O)OP(=O)(O)O)C(O)C1O (stereo not drawn) [ADP]
activity at 100 µM [1]: 34.2%
activity at 100 µM [2]: 25%
activity at 100 µM [3]: 60.3%
activity at 100 µM [4]: 18%
activity at 100 µM [5]: 34%
activity at 100 µM [6]: 46.8%

CC(C)(COP(=O)(O)OP(=O)(O)OC[C@H]1O[C@@H](n2cnc3c(N)ncnc32)[C@H](O)[C@@H]1OP(=O)(O)O)[C@@H](O)C(=O)NCCC(=O)NCCS [CoA, Coenzyme A]
activity at 100 µM [1]: 123%
activity at 100 µM [2]: 93.1%
activity at 100 µM [3]: 112%
activity at 100 µM [4]: 104%
activity at 100 µM [5]: 113%
activity at 100 µM [6]: 70.2%

CC(C)(COP(=O)(O)OP(=O)(O)OCC1OC(n2cnc3c(N)ncnc32)C(O)C1O)C(O)C(=O)NCCC(=O)NCCS (stereo not drawn) [dpCoA, dephospho-CoA]
activity at 100 µM [1]: 91.5%
activity at 100 µM [2]: 81.5%
activity at 100 µM [3]: 87.7%
activity at 100 µM [4]: 94.4%
activity at 100 µM [5]: 98.3%
activity at 100 µM [6]: 61.9%
